Measurements as given in article PMC8886574, “Synthesis, physicochemical characterization and neuroprotective evaluation of novel 1-hydroxypyrazin-2(1H)-one iron chelators in an in vitro cell model of Parkinson's disease” (Dalton Transactions (Cambridge, England : 2003), 2022).
Like-named read-outs stand apart in the source and are kept apart here.

Tests used:
[1] = cited from earlier work
[2] = DPPH radical scavenging assay; type: biochemical
[3] = Trolox equivalent antioxidant capacity (TEAC) assay, ABTS radical cation decolorization; type: biochemical; settings: for time to complete reaction with ABTS radical cation: TEAC assay
Text: 2,2′-Azinobis-(3-ethylbenzothiazoline)-6-sulfonic acid radical cation (ABTS˙^+) is a blue/green chromophore that absorbs at 745 nm and was produced through the reaction between ABTS and potassium persulfate. Addition of antioxidants to the radical cation reduces it to the non-absorbing ABTS to an extent and on a time-scale depending on its antioxidant activity, the concentration of the antioxidant and the duration of the reaction. […] The TEAC value for a given ligand at a given time point was obtained by dividing the corresponding slope of the ligand by the slope of Trolox (Table 3 and Fig. S21 ^†).
TEAC values were calculated according to an ABTS radical cation decolorization assay. 2,2′-Azinobis-(3-ethylbenzothiazoline-6-sulphonic acid diammonium salt (ABTS, 7 mM) was dissolved in water (10 mL) and exposed to potassium persulphate (2.45 mM). After a 16-hour incubation period (dark, room temperature), the resulting solution was diluted with HPLC-grade methanol such that the absorbance of the solution at 745 nm was around 0.7. ABTS˙^+ solution (2 mL) was loaded into a cuvette and the absorbance was recorded at 745 nm. 50 μL of various concentrations of the given ligand solution were then added, the cuvette was vigorously shaken and the absorbance was measured after 1, 3 and 6 minutes. Data were plotted such that for each time point a linear system of percentage of inhibition of ABTS˙^+versus concentration of ligand was obtained. The slope of each plot was normalised with respect to that of Trolox to give the Trolox equivalence value for each time point.

[4] = tested on: SH-SY5Y neuroblastoma cells; parameters: method as in earlier work; settings: studied previously ref 27; cited from earlier work
[5] = parameters: method as in PMID 32078022; settings: cited from earlier work
[6] = cited from earlier work; remark: listed apart in the source
[7] = tested on: SH-SY5Y neuroblastoma cells; assay: Neuroprotection against 6-OHDA insult, MTT cell viability assay; type: cell-based, Human; settings: for neuroprotection against 6-OHDA (in words): 0–300 μM, pre-incubation 1 hour, 6-OHDA 24 hours; for % 6-OHDA Rescue (at 100 µM): 100 µM dose of the compound; for cell viability restored: human, 24 h
Method: We next evaluated the neuroprotective ability of these compounds when cells are exposed to 6-hydroxydopamine (6-OHDA), a neurotoxin that emulates various pathological aspects of PD in dopaminergic neurons, in both in vitro and in vivo disease models, including mitochondrial impairment and cell death.[26c,28,46] […] Cells were pre-treated with the compound of interest at different concentrations for 1 hour prior to treatment with 6-OHDA ([…]) for a further 24 hours.
Human SH-SY5Y neuroblastoma cells (ATCC® CRL-2266™) were plated at 20 000 cells per well in 96-well microplates, and left to adhere overnight to the well surface, in cell culture media composed of 50% advanced minimum essential medium (MEM), 50% Ham's F12 medium, 1% L-glutamine, that was supplemented with 2% fetal bovine serum (FBS). All media components were obtained from Thermo Fisher Scientific (Gibco™).
Each well's media was then replaced with 100 μL per well of serum free media, containing ascending concentrations of the novel compounds that ranged from 0–300 μM. Cells were pre-incubated with the compounds for 1 hour at 37 °C, 5% CO2, before exposure to 50 μM 6-OHDA (apart from the wells containing non-toxin treated control cells) for a further 24 hours. Just before application to cells, a 10 mM 6-OHDA hydrochloride (Sigma-Aldrich) stock concentration was prepared, by dissolving the powder in 1 mL distilled water containing 0.1% ascorbic acid (Sigma-Aldrich); the solution was protected against light and kept on ice until use.
After a further 24 hours incubation period at 37 °C in a 5% CO2 environment, cell viability was measured using the tetrazolium dye, 3-(4,5-dimethylthiazol-2-yl)-2,5-diphenyltetrazolium bromide (MTT). For this colorimetric assay, 11 μL of MTT (5 mg mL^−1) was added to the 100 μL media per well, and then incubated for 3 hours at 37 °C, 5%, CO2. For lysing the cells, an equal volume of solubilizing solution (dimethyl sulfoxide (DMSO)) was added to each well and mixed thoroughly. Absorption was measured at a wavelength of 570 nm by using a scanning multiwell spectrophotometer (Sunrise Tecan, Durham, NC, USA). Cell viability was calculated as a percentage compared to the untreated (not receiving toxin or drug compound) control wells. Data is expressed as the means ± the SEM of three independent experiments. Statistical analyses of the MTT-derived cell viability data were performed using Prism software (v3, GraphPad, San Diego, CA, USA) and using a one-way ANOVA, followed by a Dunnett's post-hoc test for multiple comparisons. Results were considered significant at P < 0.05.

[8] = Protonation constants (log K) of ligands by UV-visible spectrophotometric titration vs. pH; type: physicochemical; settings: for log K LH2 / log K LH: Solvent H2O; for log K LH: I = 0.1 M (NaClO4), T = 25.0 °C; for pKa: value used as input for BBB score (Tables S1–S6)
Method: For ligand 10a, protonation constants of the ligand were studied in both media while complexation studies were carried out only in the mixed solvent for solubility reasons.

[9] = Fe^3+ complexation: stability constants (log β) and sequestering ability (pL0.5) by spectrophotometric titration; settings: solvent H2O; for log β FeL / log β FeL2 / log β FeL3: Fe^3+ complex; for pL0.5: towards Fe^3+ at pH 7.4, [Fe^3+] = 10^−9 M
[10] = Distribution coefficients (log D7.4), Shake Flask method, n-octanol / HEPES buffer pH 7.4; type: physicochemical; settings: free ligand, n-octanol / HEPES buffered aqueous phase pH 7.4
Method: The method is based on the principle that the solute's distribution is determined as a ratio of concentrations of the test compound in a solution mixture, consisting of two immiscible phases, namely n-octanol and an aqueous buffer (HEPES buffer, pH 7.4).

[11] = Solubility as observed during the studies (in words); type: physicochemical; settings: for solubility in the aqueous phase (in words): HEPES-buffered aqueous phase pH 7.4 of log D7.4 determination, ligands and their Fe^3+ complexes
[12] = value used as input for BBB score (Tables S7–S9), previously studied ligands ref 28

CC(=O)N(O)CCCCCNC(=O)CCC(=O)N(O)CCCCCNC(=O)CCC(=O)N(O)CCCCCN [DFO, desferrioxamine, reference compound]
log β ([1]; iron affinity ref 57a,b): 30.5

Cc1c(O)c(=O)ccn1C [DFP 1, deferiprone, reference compound]
EC50 ([2]; methanol, steady-state): 8 mg/L
EC50 ([2]; read-out: EC50): 58 µM
time to complete reaction with ABTS radical cation [3]: ≤ 1 min
Antioxidant activity as TEAC ([3]; t = 1 min): ∼0.7 mM
Antioxidant activity as TEAC ([3]; t = 3 min): ∼0.7 mM
Antioxidant activity as TEAC ([3]; t = 6 min): ∼0.7 mM
% 6-OHDA Rescue (at 100 µM) [4]: 117%

O=c1cccc(CO)n1O [Ligand 2]
log D7.4 of Fe^3+ complex ([5]; Fe^3+ complex of the ligand ref 28): −0.18
log D7.4 ([5]; free ligand ref 28): −1.71
pKa [6, 12]: 6.02
% 6-OHDA Rescue (at 100 µM) [4]: 93%

O=C(O)c1cccn(O)c1=O [Ligand 3]
pKa [6, 12]: 3.7
% 6-OHDA Rescue (at 100 µM) [4]: 84%

NCCc1cc(O)c(O)cc1O [Ligand 6-OHDA, 6-hydroxydopamine, reference compound]
decrease of cell viability ([7]; toxin only, 24 hours): approximately 50%

Cc1ncc(=O)n(O)c1C [Ligand 6a, 1-Hydroxy-5,6-dimethylpyrazin-2(1H)-one]
neuroprotection against 6-OHDA (in words) [7]: fully rescued
% 6-OHDA Rescue (at 100 µM) [7]: 100%
cell viability restored [7]: ≥ 89%
log K LH2 [8]: 0.04(2)
log K LH [8]: 4.58(4)
pKa [8]: 4.58
pKa ([6]; published previously ref 35): 4.7
Antioxidant activity as TEAC ([3]; t = 1 min): 0.08 mM
Antioxidant activity as TEAC ([3]; t = 3 min): 0.16 mM
Antioxidant activity as TEAC ([3]; t = 6 min): 0.22 mM
log β FeL [9]: 10.38(6)
log β FeL2 [9]: 18.1(4)
log β FeL3 [9]: 23.85(1)
pL0.5 [9]: 4.36
logD [10]: -1.73
log β3 ([1]; 1 : 3 Fe^3+ complex, different experimental conditions ref 35): 20.2

Cc1nc(Cc2ccccc2)c(=O)n(O)c1C [Ligand 6c, 1-Hydroxy-3-benzyl-5,6-dimethylpyrazin-2(1H)-one]
neuroprotection against 6-OHDA (in words) [7]: partially prevented
% 6-OHDA Rescue (at 100 µM) [7]: 89%
cell viability restored [7]: ≥ 89%
pKa [8]: 5.53
Antioxidant activity as TEAC ([3]; t = 1 min): 0.21 mM
Antioxidant activity as TEAC ([3]; t = 3 min): 0.31 mM
Antioxidant activity as TEAC ([3]; t = 6 min): 0.40 mM
solubility in the aqueous phase (in words) [11]: low solubilities
solubility in water (in words) [11]: very low solubility in water

Cc1nc(Cc2ccc(O)cc2)c(=O)n(O)c1C [Ligand 6d, 1-Hydroxy-3-(4-hydroxybenzyl)-5,6-dimethylpyrazin-2(1H)-one]
% 6-OHDA Rescue (at 100 µM) [7]: 64%
pKa [8]: 5.96
Antioxidant activity as TEAC ([3]; t = 1 min): 0.41 mM
Antioxidant activity as TEAC ([3]; t = 3 min): 0.55 mM
Antioxidant activity as TEAC ([3]; t = 6 min): 0.64 mM
solubility in the aqueous phase (in words) [11]: low solubilities
solubility in water (in words) [11]: very low solubility in water

O=c1cncc(-c2ccccc2)n1O [Ligand 10a, 1-Hydroxy-6-phenylpyrazin-2(1H)-one]
neuroprotection against 6-OHDA (in words) [7]: only marginal protection
% 6-OHDA Rescue (at 100 µM) [7]: 63%
log K LH2 [8]: ∼−0.6
log K LH [8]: 3.18(1)
pKa [8]: 3.18
time to complete reaction with ABTS radical cation [3]: ~3 min
Antioxidant activity as TEAC ([3]; t = 1 min): 0.66 mM
Antioxidant activity as TEAC ([3]; t = 3 min): 0.69 mM
Antioxidant activity as TEAC ([3]; t = 6 min): 0.70 mM
logD [10]: -1.2
solubility in water (in words) [11]: very low solubility in water

COc1ccc(-c2cncc(=O)n2O)cc1 [Ligand 10b, 1-Hydroxy-6-(4-methoxyphenyl)-pyrazin-2(1H)-one]
solubility in water (in words) [11]: low water solubilities
melting point: 176.8 to 179 °C

O=c1cncc(-c2ccc(F)cc2)n1O [Ligand 10c, 1-Hydroxy-6-(4-fluorophenyl)-pyrazin-2(1H)-one]
solubility in water (in words) [11]: low water solubilities
melting point: 210.6 to 212.5 °C

O=c1cncc(-c2ccc(O)cc2)n1O [Ligand 10d, 1-Hydroxy-6-(4-hydroxyphenyl)-pyrazin-2(1H)-one]
neuroprotection against 6-OHDA (in words) [7]: partially prevented
% 6-OHDA Rescue (at 100 µM) [7]: 76%
pKa [8]: 4

Cc1cncc(=O)n1O [Ligand 11a, 1-Hydroxy-6-methylpyrazin-2(1H)-one]
% 6-OHDA Rescue (at 100 µM) [7]: 60%
log K LH2 [8]: 0.2(2)
log K LH [8]: 3.98(5)
pKa [8]: 3.98
Antioxidant activity as TEAC ([3]; t = 1 min): 0.02 mM
Antioxidant activity as TEAC ([3]; t = 3 min): 0.03 mM
Antioxidant activity as TEAC ([3]; t = 6 min): 0.05 mM
log β FeL [9]: 7.83(1)
log β FeL2 [9]: 14.28(2)
log β FeL3 [9]: 20.19(4)
pL0.5 [9]: 3.13
logD [10]: -0.4

O=c1cnccn1O [unsubstituted 1-hydroxypyrazin-2(1H)-one, 1-hydroxypyrazin-2(1H)-one]
pKa ([6]; published previously ref 35): 4.4
